# Legend:
# [1] = test system: isolation-induced aggressive behavior; assay: Isolation-Induced Aggression in Mice; format: in vivo, mouse (male Balb/c); details: po
# Protocol: Male Balb/c mice (Charles River) were used. […] Isolated mice failing to consistently attack an intruder were eliminated from the colony.
# Drug testing was carried out by treating the isolated mice with test drugs or standards. Fifteen min after dosing with drugs by the oral route (po), one isolated mouse was removed from its home cage and placed in the home cage of another isolate. Scoring was a yes or no response for each pair. A maximum of 3 min was allowed for an attack and the pair was separated immediately upon an attack. Selection of home cage and intruder mice was randomized for each test. Mice were treated and tested twice a week with at least a 2 day washout period between treatments.
# [2] = test system: Erysiphe graminis f. sp. tritici; assay: Test A: wheat powdery mildew disease control (wheat seedlings); format: in vivo; details: sprayed at 1000 to 2 ppm (rate not given per compound)
# Protocol: The test compounds were dissolved in acetone in an amount equal to 6% of the final volume and then suspended at a concentration of from 1000 to 2 ppm in purified water containing 250 ppm of the surfactant TREM 014 (polyhydric alcohol esters). This suspension was sprayed to the point of run-off on wheat seedlings. The following day plants were inoculated with a spore dust of Erysiphe graminis f. sp. tritici, the causal agent of wheat powdery mildew, and incubated in a growth chamber at 20° C. for 7 days, when disease ratings were made.
# [3] = test system: Puccinia recondita; assay: Test B: wheat leaf rust disease control (wheat seedlings); format: in vivo; details: sprayed at 1000 to 2 ppm (rate not given per compound)
# Protocol: The test compounds were dissolved in acetone in an amount equal to 6% of the final volume and then suspended at a concentration of from 1000 to 2 ppm in purified water containing 250 ppm of the surfactant TREM 014 (polyhydric alcohol esters). This suspension was sprayed to the point of run-off on wheat seedlings.
# [4] = test system: Venturia inaequalis; assay: Test C: apple scab disease control (apple seedlings); format: in vivo; details: sprayed at 1000 to 2 ppm (rate not given per compound)
# Protocol: The test compounds were dissolved in acetone in an amount equal to 6% of the final volume and then suspended at a concentration of from 1000 to 2 ppm in purified water containing 250 ppm of the surfactant TREM 014 (polyhydric alcohol esters). This suspension was sprayed to the point of run-off on apple seedlings. The following day plants were inoculated with a spore suspension of Venturia inaequalis, the causal agent of apple scab, and incubated in a saturated humidity chamber at 20° C. for 24 hours and then in a growth chamber at 22° C. for 11 days, when disease ratings were made.
# [5] = test system: Cercosporidum personatum; assay: Test D: peanut late leaf spot disease control (peanut seedlings); format: in vivo; details: sprayed at 1000 to 2 ppm (rate not given per compound)
# Protocol: The test compounds were dissolved in acetone in an amount equal to 6% of the final volume and then suspended at a concentration of from 1000 to 2 ppm in purified water containing 250 ppm of the surfactant TREM 014 (polyhydric alcohol esters). This suspension was sprayed to the point of run-off on peanut seedlings. The following day plants were inoculated with a spore suspension of Cercosporidum personatum, the causal agent of peanut late leaf spot, and incubated in a saturated humidity chamber at 22° C. for 24 hours and then in a high humidity chamber at 27° C. for 7 days, and then in a growth chamber at 29° C. for 7 days, when disease ratings were made.
# [6] = test system: Phytophthora infestans; format: in vivo; details: tomato late blight; sprayed at 1000 to 2 ppm (rate not given per compound)
# [7] = test system: Pyricularia oryzae; format: in vivo; details: rice blast; sprayed at 1000 to 2 ppm (rate not given per compound)
# [8] = test system: Rhizoctonia solani; assay: Test I: rice sheath blight disease control (rice seedlings); format: in vivo; details: sprayed at 1000 to 2 ppm (rate not given per compound)
# Protocol: The test compounds were dissolved in acetone in an amount equal to 6% of the final volume and then suspended at a concentration of from 1000 to 2 ppm in purified water containing 250 ppm of the surfactant TREM 014 (polyhydric alcohol esters). This suspension was sprayed to the point of run-off on rice seedlings. The following day plants were inoculated with a mycelial suspension of Rhizoctonia solani, the causal agent of rice sheath blight, and incubated in a saturated humidity chamber at 27° C. for 48 hours and then in a growth chamber at 29° C. for 4 days, when disease ratings were made.
# [9] = test system: Botrytis cinerea; assay: Test E: cucumber grey mold disease control (cucumber seedlings); format: in vivo; details: sprayed at 1000 to 2 ppm (rate not given per compound)
# Protocol: The test compounds were dissolved in acetone in an amount equal to 6% of the final volume and then suspended at a concentration of from 1000 to 2 ppm in purified water containing 250 ppm of the surfactant TREM 014 (polyhydric alcohol esters). This suspension was sprayed to the point of run-off on cucumber seedlings. The following day plants were inoculated with a spore suspension of Botrytis cinerea, the causal agent of cucumber grey mold, and incubated in a saturated humidity chamber at 20° C. for 48 hours and then in a greenhouse for 5 days, when disease ratings were made.
# [10] = test system: Plasmopara viticola; assay: Test G: grape downy mildew disease control (grape seedlings); format: in vivo; details: sprayed at 1000 to 2 ppm (rate not given per compound)
# Protocol: The test compounds were dissolved in acetone in an amount equal to 6% of the final volume and then suspended at a concentration of from 1000 to 2 ppm in purified water containing 250 ppm of the surfactant TREM 014 (polyhydric alcohol esters). This suspension was sprayed to the point of run-off on grape seedlings. The following day plants were inoculated with a spore suspension of Plasmopara viticola, the causal agent of grape downy mildew, and incubated in a dew chamber at 20° C. for 24 hours and then in a growth chamber a 20° C. for 7 days, when disease ratings were made.
Compound,inhibiting the isolation-induced aggressive behavior (in words) [1],"disease control rating, Test A [2] [%]","disease control rating, Test B [3] [%]","disease control rating, Test C [4] [%]","disease control rating, Test D [5] [%]","disease control rating, Test F [6] [%]","disease control rating, Test H [7] [%]","disease control rating, Test I [8] [%]","disease control rating, Test E [9] [%]","disease control rating, Test G [10] [%]"
Fc1ccc(COCC2CCN(Cc3ccc4ccccc4c3)CC2)cc1 [Example 114],potent activities,,,,,,,,,
Clc1ccc(OCC2CCN(Cc3ccccc3)CC2)cc1 [Example 134],potent activities,,,,,,,,,
O=[N+]([O-])c1ccc(OCC2CCN(Cc3ccccc3)CC2)cc1 [Example 135],potent activities,,,,,,,,,
FC(F)(F)c1ccc(OCC2CCN(Cc3ccccc3)CC2)cc1 [Example 136],potent activities,,,,,,,,,
Fc1ccc(OCC2CCN(Cc3ccc(Cl)cc3)CC2)cc1 [Example 138],potent activities,,,,,,,,,
Fc1ccc(COCC2CCN(Cc3ccccc3)CC2)cc1 [Example 181],potent activities,87,37,55,82,0,0,0,,
COc1ccc(COCC2CCN(Cc3ccccc3)CC2)cc1 [Example 182],,63,27,0,0,0,0,0,,
c1ccc(COCC2CCN(Cc3ccccc3)CC2)cc1 [Example 185],,29,0,28,26,0,0,0,0,
COC(=O)c1ccc(COCC2CCN(Cc3ccccc3)CC2)cc1 [Example 186],,0,,81,0,0,0,0,0,
COC(=O)c1ccc(CN2CCC(COCc3ccc(F)cc3)CC2)cc1 [Example 187],,98,96,51,0,0,0,0,0,
Oc1ccc(CN2CCC(COCc3ccc(F)cc3)CC2)cc1 [Example 189],,99,26,86,75,0,0,0,0,
Fc1ccc(COCC2CCN(Cc3ccc4ccccc4c3)CC2)cc1 [Example 195],,99,73,68,46,0,0,0,0,
Fc1ccc(COCC2CCN(Cc3cccc4ccccc34)CC2)cc1 [Example 196],,0,,90,0,26,0,0,0,40
Fc1ccc(COCC2CCN(Cc3ccccc3)CC2)cc1 [Example 205],,94,35,66,30,0,0,0,33,
CCCCCCN1CCC(COCc2ccc(F)cc2)CC1 [Example 312],,97,27,16,51,0,0,0,0,
Fc1ccc(COCC2CCN(CCCc3ccccc3)CC2)cc1 [Example 313],,97,29,40,91,0,0,0,0,
CC(C)=CCN1CCC(COCc2ccc(F)cc2)CC1 [Example 314],,91,,46,75,0,0,39,8,
Fc1ccc(COC2CCN(Cc3ccccc3)CC2)cc1 [Example 315],,99,52,90,46,0,0,19,0,

# From patent US5169855A, “Piperidine ether derivatives as psychotropic drugs or plant fungicides” (priority 1990, dated 1992)
